Test results as given in US20060292243A1, “Arsenic compounds for the treatment of the arsenic-sensitive blast-cell related diseases” (priority 2005, published 2006).

Key:
[1] = tested on: white blood cells in BALF; assay: Differential white blood cell count in BALF, OVA-immunized mice; assay type: in vivo, BALB/c mice; settings: for Lymphocyte concentration in BALF / Neutrophil concentration in BALF: mean; for Eosinophil concentration in BALF / Macrophage concentration in BALF: mean ± SD
Procedure: BALB/c mice (female, 6-8 weeks) were immunized with ovalbumin (OVA) at day 0, 14, 21 and 28. 38 days later, animals were injected with arsenic trioxide (ATO) i.p. for 7 days and antigen challenges with OVA were performed at day 42, 43, 44. At day 45, the airway enhanced pause (PenH) values were measured. 48 hours after the last antigen challenges, the mice were sacrificed, the trachea cannulated, and bronchoalveolar lavage (BAL) was performed by four repeated lavages with balanced salt solution (HBSS) injected into the lungs via the trachea. Total cell counts were performed with a hemocytometer after staining with trypan blue, and then cytospins were prepared, and a differential count of 300 cells per slide was performed. To obtain the absolute number of each leukocyte subtype in the lavage, the percentage of each cell type was multiplied by the total number of cells that were recovered from the bronchoalveolar lavage fluid (BALF). Eotaxin in the BALF was measured via ELISA. Four groups of mice were treated as Table 3.1.
Group A mice were challenged by PBS only and then treated by PBS, too. Group B mice were immunized by ovalbumin and then treated by PBS only. Group C mice were immunized by ovalbumin and then treated by arsenic trioxide in a dosage of 2.5 mg per kg for mice. Group D mice were challenged by ovalbumin as group B and C and then treated by arsenic trioxide in a dosage of 5 mg/kg.
The white blood cells in BALF were counted and differentiated. Every kind of white cell was increased in immunized groups when in comparison with the non-immunized group.

dsDNA = assay: Serum IgG anti-dsDNA ELISA in SLE model mice; assay type: in vivo, NZB/NZW mice
Procedure: (§1) In vivo studies on the activity of arsenic compound were carried out by using an experimental animal model of human Systemic Lupus Erythematosus. NZB/NZW denotes the mouse strain that spontaneously develops an autoimmune syndrome having notable similarities to human Systemic Lupus Erythematosus. Autoimmune disease in NZB/NZW mice is characterized by antinuclear antibodies (IgG) production about 4 months of age, and glomerulonephritis with proteinuria is developed when at 9 months of age, and that is the major cause of death (uremia).
(§2) At 24 weeks of age, mice (3 groups) were treated 3 times per week with PBS (Group I as positive control), 2.5 mg/kg of As2O3 (Group II), or 5 mg/kg of As2O3 (Group III) administered intraperitoneally. The treatment was stopped at 28 weeks of age. Mice were observed daily for clinical signs of disease and for mortality and were bled every 4 weeks for determination of anti-DNA antibody production.
(§3) Standard ELISA assay to measure the serum levels of anti-DNA antibodies was performed as follows. The plates were coated 10 μg/mL mBSA 4° C. overnight before coating dsDNA and ssDNA diluted with PBS to concentration of 7.5 μg/mL. ssDNA was prepared by boiling for 20 min then placed on ice immediately for 20 min. After overnight incubation at 4° C., the plates were washed and blocked with gelatin-PBS solution. The serum was diluted and then added to the appropriate wells, which were then incubated at 37° C. for 45 min. Horseradish peroxidase-comjugated anti-mouse γ-chain-specific antibodies were added. After incubation at 37° C. for 50 min, then room temperature for 10 min, 2,2′-azino-bisC3-ethylbenzthiazoline-6-sulphonic acid (ABTS) solution was used as substrate and the absorbance was measured at 405 nm. The level of anti-DNA IgG is presented as ELISA units (EU/ml) compared with mAb 10F10. The OD value generated by 74 ng/ml of 10F10 Ab was defined as 1 EU/ml for anti-DNA IgG. The level of anti-nucleosome IgG was calculated as EU by comparison with 10F10 Ab. The absorbance value generated by 231 ng/ml of 10F10 Ab was defined as 1 EU/ml of anti-nucleosome IgG.

ssDNA = assay: Serum IgG anti-ssDNA ELISA in SLE model mice; assay type: in vivo, NZB/NZW mice
Procedure: as §1, §2, §3

NZB/NZW mice = assay: Survival of SLE model mice; assay type: in vivo
Procedure: as §1, §2
Coincident with ameliorating the clinical signs of severe immune complex nephritis, a dramatic prolongation of survival was observed.

[2] = 2.5 mg/kg i.p. 3 times per week, before treatment
[3] = 2.5 mg/kg, 4 weeks after treatment
[4] = 2.5 mg/kg, 8 weeks after treatment
[5] = 2.5 mg/kg, 12 weeks after treatment
[6] = 5 mg/kg i.p. 3 times per week, before treatment
[7] = 5 mg/kg, 4 weeks after treatment
[8] = 5 mg/kg, 8 weeks after treatment
[9] = 5 mg/kg, 12 weeks after treatment

arsenic trioxide
Lymphocyte concentration in BALF ([1]; Group C: OVA, ATO 2.5 mg/kg): 37.0 ×1000 cells/ml
Neutrophil concentration in BALF ([1]; Group C: OVA, ATO 2.5 mg/kg): 200.7 ×1000 cells/ml
Eosinophil concentration in BALF ([1]; Group C: OVA, ATO 2.5 mg/kg): 28.6 ± 13.0 ×1000 cells/ml
Macrophage concentration in BALF ([1]; Group C: OVA, ATO 2.5 mg/kg): 621.0 ± 199.6 ×1000 cells/ml
Lymphocyte concentration in BALF ([1]; Group D: OVA, ATO 5 mg/kg): 28.7 ×1000 cells/ml
Neutrophil concentration in BALF ([1]; Group D: OVA, ATO 5 mg/kg): 244.0 ×1000 cells/ml
Eosinophil concentration in BALF ([1]; Group D: OVA, ATO 5 mg/kg): 33.2 ± 12.5 ×1000 cells/ml
Macrophage concentration in BALF ([1]; Group D: OVA, ATO 5 mg/kg): 499.1 ± 131.6 ×1000 cells/ml
effect on eosinophil number in BALF ([1]; group C and D vs group B): diminish significantly the eosinophil number
IgG Anti-dsDNA titer (dsDNA; [2]): 0.262 ELISA Unit
IgG Anti-dsDNA titer (dsDNA; [3]): 0.572 ELISA Unit
IgG Anti-dsDNA titer (dsDNA; [4]): 0.464 ELISA Unit
IgG Anti-dsDNA titer (dsDNA; [5]): 0.442 ELISA Unit
IgG Anti-dsDNA titer (dsDNA; [6]): 0.362 ELISA Unit
IgG Anti-dsDNA titer (dsDNA; [7]): 0.285 ELISA Unit
IgG Anti-dsDNA titer (dsDNA; [8]): 0.357 ELISA Unit
IgG Anti-dsDNA titer (dsDNA; [9]): 0.702 ELISA Unit
anti-DNA antibody levels in sera compared to PBS (Tables 4.1 and 4.2, ssDNA and dsDNA) (dsDNA; NZB/NZW mice, 2.5 or 5 mg/kg): significantly lower anti-DNA antibody levels
IgG Anti-ssDNA titer (ssDNA; [2]): 0.155 ELISA Unit
IgG Anti-ssDNA titer (ssDNA; [3]): 0.347 ELISA Unit
IgG Anti-ssDNA titer (ssDNA; [4]): 0.400 ELISA Unit
IgG Anti-ssDNA titer (ssDNA; [5]): 0.105 ELISA Unit
IgG Anti-ssDNA titer (ssDNA; [6]): 0.176 ELISA Unit
IgG Anti-ssDNA titer (ssDNA; [7]): 0.303 ELISA Unit
IgG Anti-ssDNA titer (ssDNA; [8]): 0.296 ELISA Unit
IgG Anti-ssDNA titer (ssDNA; [9]): 0.201 ELISA Unit
survival rate (%) (NZB/NZW mice; 2.5 mg/kg, 0 weeks): 100%
survival rate (%) (NZB/NZW mice; 2.5 mg/kg, 22 weeks): 100%
survival rate (%) (NZB/NZW mice; 2.5 mg/kg, 31 weeks): 100%
survival rate (%) (NZB/NZW mice; 2.5 mg/kg, 38 weeks): 83.3%
survival rate (%) (NZB/NZW mice; 2.5 mg/kg, 39 weeks): 66.7%
survival rate (%) (NZB/NZW mice; 2.5 mg/kg, 40 weeks): 66.7%
survival rate (%) (NZB/NZW mice; 2.5 mg/kg, 41 weeks): 66.7%
survival rate (%) (NZB/NZW mice; 2.5 mg/kg, 42 weeks): 50%
survival rate (%) (NZB/NZW mice; 5 mg/kg, 0 weeks): 100%
survival rate (%) (NZB/NZW mice; 5 mg/kg, 22 weeks): 100%
survival rate (%) (NZB/NZW mice; 5 mg/kg, 31 weeks): 66.7%
survival rate (%) (NZB/NZW mice; 5 mg/kg, 38 weeks): 66.7%
survival rate (%) (NZB/NZW mice; 5 mg/kg, 39 weeks): 66.7%
survival rate (%) (NZB/NZW mice; 5 mg/kg, 40 weeks): 66.7%
survival rate (%) (NZB/NZW mice; 5 mg/kg, 41 weeks): 66.7%
survival rate (%) (NZB/NZW mice; 5 mg/kg, 42 weeks): 66.7%
treated mice still alive (NZB/NZW mice; after 43 weeks): 50%
